Reference: ChEMBL document CHEMBL3352182, “Discovery and Development of LX7101, a Dual LIM-Kinase and ROCK Inhibitor for the Treatment of Glaucoma” (ACS Med Chem Lett, 2015)
pIC50, pKd: −log10 of the molar value.

Experiments:
[1] = biological target: T1, LIM domain kinase 2 (Homo sapiens, UniProt P53671); assay: Inhibition of human full-length LIMK2 assessed as incorporation of P33 from ATP into biotinylated-cofilin substrate by scintillation counting analysis in presence of 2 uM ATP
[2] = Stability of the compound in 1:1 H2O/MeOH assessed as decomposition measured at 60 degC after 24 hrs by HPLC; assay type: physicochemical
[3] = biological target: T2, Rho-associated protein kinase 1 (Homo sapiens, UniProt Q13464); assay: Inhibition of human Rock1 assessed as incorporation of P33 from ATP into biotinylated-cofilin substrate by scintillation counting analysis in presence of 2 uM ATP
[4] = system: Mus musculus; assay: Reduction in dexamethasone-induced ocular hypertensive C57BL/6J-Tyr c-Brd x 129S5/SvEvBrd, F2 generation mouse assessed as intraocular pressure at 5 mg/ml, topical instillation measured after 2 hrs; assay type: functional, Eye
[5] = biological target: LIM domain kinase 1 (Homo sapiens, UniProt P53667); assay: Inhibition of human LIMK1 assessed as incorporation of P33 from ATP into biotinylated-cofilin substrate by scintillation counting analysis in presence of 2 uM ATP
[6] = biological target: T3, Rho-associated protein kinase 2 (Homo sapiens, UniProt O75116); assay: Inhibition of human Rock2 assessed as incorporation of P33 from ATP into biotinylated-cofilin substrate by scintillation counting analysis in presence of 2 uM ATP
[7] = biological target: T1, LIM domain kinase 2; assay: Inhibition of human full-length LIMK2 assessed as incorporation of P33 from ATP into biotinylated-cofilin substrate by scintillation counting analysis in presence of 200 uM ATP
[8] = biological target: T2, Rho-associated protein kinase 1; assay: Inhibition of human Rock1 assessed as incorporation of P33 from ATP into biotinylated-cofilin substrate by scintillation counting analysis in presence of 200 uM ATP
[9] = biological target: T3, Rho-associated protein kinase 2; assay: Inhibition of human Rock2 assessed as incorporation of P33 from ATP into biotinylated-cofilin substrate by scintillation counting analysis in presence of 200 uM ATP
[10] = biological target: T1, LIM domain kinase 2; assay: Binding affinity to human LIMK2
[11] = biological target: T3, Rho-associated protein kinase 2; assay: Binding affinity to human Rock2
[12] = Cmax in rat dosed topically; assay type: ADME, organism-based; conditions: in vivo, topical or ocular
[13] = Stability of the compound in aqueous solution formulation at 60 degC after 14 days; assay type: physicochemical; conditions: read-out: Stability

T3 sequence (O75116 whole entry, the tested form may be a part): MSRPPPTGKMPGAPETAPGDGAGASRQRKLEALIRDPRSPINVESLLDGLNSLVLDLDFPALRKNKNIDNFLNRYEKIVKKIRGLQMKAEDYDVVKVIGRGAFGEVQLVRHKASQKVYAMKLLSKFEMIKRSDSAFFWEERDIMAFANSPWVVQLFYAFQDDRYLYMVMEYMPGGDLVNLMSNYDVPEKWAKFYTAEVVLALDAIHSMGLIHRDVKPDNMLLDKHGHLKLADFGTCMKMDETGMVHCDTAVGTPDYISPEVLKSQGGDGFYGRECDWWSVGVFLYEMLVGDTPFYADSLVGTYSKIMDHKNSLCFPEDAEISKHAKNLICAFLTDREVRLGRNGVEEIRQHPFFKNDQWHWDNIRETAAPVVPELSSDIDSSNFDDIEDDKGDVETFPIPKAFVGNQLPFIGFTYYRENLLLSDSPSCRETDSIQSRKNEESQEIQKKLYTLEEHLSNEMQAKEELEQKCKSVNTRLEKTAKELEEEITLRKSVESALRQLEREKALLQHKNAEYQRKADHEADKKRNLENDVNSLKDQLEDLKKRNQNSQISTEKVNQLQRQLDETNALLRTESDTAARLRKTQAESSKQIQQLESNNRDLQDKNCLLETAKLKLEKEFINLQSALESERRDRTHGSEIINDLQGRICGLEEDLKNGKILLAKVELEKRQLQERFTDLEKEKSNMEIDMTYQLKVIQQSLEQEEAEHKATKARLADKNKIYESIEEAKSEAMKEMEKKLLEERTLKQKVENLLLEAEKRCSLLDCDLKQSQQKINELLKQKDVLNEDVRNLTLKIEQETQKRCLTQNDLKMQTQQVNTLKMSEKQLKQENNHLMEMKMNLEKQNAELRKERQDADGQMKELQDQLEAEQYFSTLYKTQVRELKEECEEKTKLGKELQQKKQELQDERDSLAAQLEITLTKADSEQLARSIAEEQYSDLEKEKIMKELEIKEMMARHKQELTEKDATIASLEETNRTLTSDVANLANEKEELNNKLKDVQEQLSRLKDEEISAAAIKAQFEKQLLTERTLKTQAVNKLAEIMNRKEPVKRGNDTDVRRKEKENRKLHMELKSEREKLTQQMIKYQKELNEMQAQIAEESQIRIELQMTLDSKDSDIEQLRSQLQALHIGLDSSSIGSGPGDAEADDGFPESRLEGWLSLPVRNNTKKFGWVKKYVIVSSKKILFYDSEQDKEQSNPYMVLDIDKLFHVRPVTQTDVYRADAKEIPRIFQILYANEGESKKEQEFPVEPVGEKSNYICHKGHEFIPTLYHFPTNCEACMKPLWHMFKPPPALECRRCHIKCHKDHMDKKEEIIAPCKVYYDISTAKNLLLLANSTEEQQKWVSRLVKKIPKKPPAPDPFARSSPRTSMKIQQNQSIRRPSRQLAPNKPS
T2 sequence (Q13464 whole entry): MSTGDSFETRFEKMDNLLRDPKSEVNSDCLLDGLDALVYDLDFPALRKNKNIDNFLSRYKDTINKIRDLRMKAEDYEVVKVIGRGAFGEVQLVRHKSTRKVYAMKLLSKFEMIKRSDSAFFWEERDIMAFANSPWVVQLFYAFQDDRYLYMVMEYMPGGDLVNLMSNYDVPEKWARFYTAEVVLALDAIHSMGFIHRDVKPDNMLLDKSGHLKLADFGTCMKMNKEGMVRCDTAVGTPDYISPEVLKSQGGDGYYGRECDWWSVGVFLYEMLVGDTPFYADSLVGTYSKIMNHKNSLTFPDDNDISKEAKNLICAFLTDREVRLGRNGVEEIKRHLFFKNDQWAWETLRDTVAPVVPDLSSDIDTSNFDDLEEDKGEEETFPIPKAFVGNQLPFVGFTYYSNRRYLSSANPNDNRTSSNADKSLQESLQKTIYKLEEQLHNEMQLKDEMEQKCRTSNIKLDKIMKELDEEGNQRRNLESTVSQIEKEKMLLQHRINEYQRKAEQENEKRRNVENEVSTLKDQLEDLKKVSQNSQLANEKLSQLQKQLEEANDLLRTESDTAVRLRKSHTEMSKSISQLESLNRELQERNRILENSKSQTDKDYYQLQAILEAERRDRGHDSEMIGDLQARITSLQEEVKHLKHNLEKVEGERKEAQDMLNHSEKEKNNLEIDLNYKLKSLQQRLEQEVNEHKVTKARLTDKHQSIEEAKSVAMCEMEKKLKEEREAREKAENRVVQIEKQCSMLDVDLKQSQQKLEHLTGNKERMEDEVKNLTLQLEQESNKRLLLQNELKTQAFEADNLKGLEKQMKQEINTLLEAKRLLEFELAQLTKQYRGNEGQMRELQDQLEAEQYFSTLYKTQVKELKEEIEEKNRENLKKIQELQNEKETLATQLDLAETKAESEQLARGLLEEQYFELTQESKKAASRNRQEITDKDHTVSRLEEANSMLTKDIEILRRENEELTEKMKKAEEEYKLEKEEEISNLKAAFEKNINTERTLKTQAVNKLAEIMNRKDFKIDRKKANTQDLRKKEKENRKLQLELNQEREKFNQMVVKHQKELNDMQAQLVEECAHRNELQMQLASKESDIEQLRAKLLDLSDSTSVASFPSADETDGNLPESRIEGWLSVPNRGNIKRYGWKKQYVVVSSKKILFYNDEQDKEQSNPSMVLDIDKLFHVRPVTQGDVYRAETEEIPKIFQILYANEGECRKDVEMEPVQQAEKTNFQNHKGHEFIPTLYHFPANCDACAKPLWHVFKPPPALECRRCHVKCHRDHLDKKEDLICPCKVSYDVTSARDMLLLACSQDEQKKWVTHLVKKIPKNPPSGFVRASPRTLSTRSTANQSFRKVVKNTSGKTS
T1 sequence (P53671 whole entry, the tested form may be a part): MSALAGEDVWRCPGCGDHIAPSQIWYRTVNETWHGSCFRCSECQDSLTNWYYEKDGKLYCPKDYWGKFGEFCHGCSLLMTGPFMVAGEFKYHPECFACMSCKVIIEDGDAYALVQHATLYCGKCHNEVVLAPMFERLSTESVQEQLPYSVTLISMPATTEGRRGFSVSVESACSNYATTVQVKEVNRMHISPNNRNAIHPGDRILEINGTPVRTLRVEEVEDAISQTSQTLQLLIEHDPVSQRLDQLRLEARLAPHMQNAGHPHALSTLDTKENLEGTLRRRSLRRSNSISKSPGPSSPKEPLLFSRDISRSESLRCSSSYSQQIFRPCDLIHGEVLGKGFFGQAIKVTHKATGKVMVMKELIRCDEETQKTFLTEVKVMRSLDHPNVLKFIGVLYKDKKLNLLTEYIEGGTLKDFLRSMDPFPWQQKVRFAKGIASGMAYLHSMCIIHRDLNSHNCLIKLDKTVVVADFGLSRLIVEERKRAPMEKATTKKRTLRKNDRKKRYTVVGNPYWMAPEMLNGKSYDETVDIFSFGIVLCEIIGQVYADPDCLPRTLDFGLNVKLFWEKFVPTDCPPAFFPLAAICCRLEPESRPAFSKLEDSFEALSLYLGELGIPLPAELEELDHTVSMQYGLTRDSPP
Sequence of LIM domain kinase 1 (P53667 whole entry, the tested form may be a part): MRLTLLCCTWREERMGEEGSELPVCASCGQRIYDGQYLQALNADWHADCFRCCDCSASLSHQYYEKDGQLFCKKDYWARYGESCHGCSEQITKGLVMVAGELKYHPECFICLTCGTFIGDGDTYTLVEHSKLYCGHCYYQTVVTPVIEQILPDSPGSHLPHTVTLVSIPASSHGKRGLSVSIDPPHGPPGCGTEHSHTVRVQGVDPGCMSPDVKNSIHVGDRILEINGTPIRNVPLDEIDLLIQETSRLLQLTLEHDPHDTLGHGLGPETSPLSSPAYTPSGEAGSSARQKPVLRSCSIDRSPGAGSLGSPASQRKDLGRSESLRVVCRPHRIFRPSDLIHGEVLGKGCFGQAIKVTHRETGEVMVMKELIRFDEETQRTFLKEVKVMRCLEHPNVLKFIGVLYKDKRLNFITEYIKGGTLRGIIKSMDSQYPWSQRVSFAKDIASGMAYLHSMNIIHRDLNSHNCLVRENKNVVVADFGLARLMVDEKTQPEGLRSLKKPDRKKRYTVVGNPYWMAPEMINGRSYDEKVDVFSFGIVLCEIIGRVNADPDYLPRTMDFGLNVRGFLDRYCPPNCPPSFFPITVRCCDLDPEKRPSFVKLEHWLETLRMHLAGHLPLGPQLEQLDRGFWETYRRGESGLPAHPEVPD

Compound | pIC50 [1] | further results
Cc1c[nH]c2ncnc(N3CCN(C(=O)N[C@@H](C)c4ccccc4)[C@@H](C)C3)c12 | 8.00 | 
COc1cccc(NC(=O)N2CCN(c3ncnc4[nH]cc(C)c34)C[C@@H]2C)c1 | 8.57 | 
Cc1c[nH]c2ncnc(N3CCN(C(=O)Nc4ccccc4)[C@@H](C)C3)c12 | 8.92 | Stability [2]: Unstable
Cc1c[nH]c2ncnc(N3CCN(C(=O)Cc4ccccc4)[C@@H](C)C3)c12 | 6.18 | Stability [2]: Stable
Cc1c[nH]c2ncnc(N3CCN(C(=O)N[C@H](C)c4ccccc4)[C@@H](C)C3)c12 | 6.74 | 
Cc1c[nH]c2ncnc(N3CCN(C(=O)Nc4cccc(OC(=O)N(C)C)c4)C(C(C)(C)C)C3)c12 (centres undefined) | 7.59 | 
Cc1c[nH]c2ncnc(N3CCN4C(=O)N(c5ccccc5)CC4C3)c12 (centres undefined) | < 6.00 | 
Cc1c[nH]c2ncnc(N3CCC(C(=O)Nc4cccc(OC(C)C)c4)CC3)c12 | 6.48 | 
C=CCC1(C(=O)Nc2cccc(Cl)c2)CCN(c2ncnc3[nH]cc(C)c23)CC1 | 8.72 | 
Cc1c[nH]c2ncnc(N3CCC(C)(C(=O)Nc4cccc(C(C)(C)C)c4)CC3)c12 | 8.49 | 
C=CCC1(C(=O)Nc2cccc(OC(=O)N(C)C)c2)CCN(c2ncnc3[nH]cc(C)c23)CC1 | 8.66 | 
Cc1c[nH]c2ncnc(N3CCC(C)(C(=O)Nc4cccc(OC(=O)N(C)C)c4)CC3)c12 | 8.32 | 
Cc1c[nH]c2ncnc(N3CCC(O)(C(=O)Nc4cccc(OC(=O)N(C)C)c4)CC3)c12 | 6.86 | 
Cc1c[nH]c2ncnc(N3CCC(C(=O)Nc4cccc(OC(=O)N(C)C)c4)(N(C)C)CC3)c12 | 8.29 | 
COCCOCC1(C(=O)Nc2cccc(OC(=O)N(C)C)c2)CCN(c2ncnc3[nH]cc(C)c23)CC1 | 8.57 | pIC50 [3]: < 5.55; Activity [4]: -1.8 mmHg
Cc1c[nH]c2ncnc(N3CCC(Cc4c[nH]cn4)(C(=O)Nc4cccc(OC(=O)N(C)C)c4)CC3)c12 | 9.00 | pIC50 [3]: 6.29; Activity [4]: -3.5 mmHg
Cc1c[nH]c2ncnc(N3CCC(CCN(C)C)(C(=O)Nc4cccc(OC(=O)N(C)C)c4)CC3)c12 | 8.14 | pIC50 [5]: 6.87; pIC50 [3]: 6.86; Activity [4]: -3.4 mmHg
Cc1c[nH]c2ncnc(N3CC[C@H](C(=O)Nc4cccc(OC(=O)N(C)C)c4)[C@@H](C)C3)c12 (relative stereo) | 6.68 | 
Cc1c[nH]c2ncnc(N3CC[C@H](C(=O)Nc4cccc(OC(=O)N(C)C)c4)[C@H](C)C3)c12 (relative stereo) | 6.96 | 
Cc1c[nH]c2ncnc(N3CCC(CN)(C(=O)Nc4cccc(OC(=O)N(C)C)c4)CC3)c12 [LX-7101] | 8.37 | pIC50 [3]: 7.16; pIC50 [6]: 7.49; pIC50 [7]: 8.12; pIC50 [8]: 5.66; pIC50 [9]: 6.47; Activity [4]: -4.2 mmHg; pKd [10]: > 6.00; pKd [11]: > 6.00; Cmax [12]: 12 nM; remaining at 336 h [13]: 99%
